Measurements from patent US20260226048A1, “MULTI-CYCLIC IRAK AND FLT3 INHIBITING COMPOUNDS AND USES THEREOF” (CHILDREN'S HOSPITAL MEDICAL CENTER, priority 2023, published 2026).

Key:
IRAK1 = molecular target: T1, IRAK1 (Homo sapiens, UniProt P51617); test: RBC HotSpot Kinase Assay, IRAK1; type: biochemical; conditions: isolated kinase enzyme, 33P-ATP, P81 filter-binding
T1 construct: purchased Reaction Biology (RBC HotSpot)
How it was run: (§1)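 Radiometric HotSpot assay of catalytic activity with isolated recombinant kinase, possibly truncated or kinase domain only. Buffer: 20 mM Hepes pH 7.5, 10 mM MgCl2, 1 mM EGTA, 0.01% Brij35, 0.02 mg/ml BSA, 0.1 mM Na3VO4, 2 mM DTT, 1% DMSO, with cofactors specific to each kinase.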

MOLM14 D835Y cells = test: MOLM14 D835Y cell viability assay (Cell Titer Glo); type: cell-based; conditions: Homo sapiens, MOLM-14, 48 h, cell viability, Cell Titer Glo, 48 hours; read-out: MOLM14 D835Y IC50
How it was run: (§2)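 MOLM14 cells with FLT3 D835Y or F691L kinase-domain resistance mutations seeded at 1000 cells/well and exposed to compound for 48 h under standard incubator conditions. Viability read by CellTiter-Glo luminescence after 15 min at room temperature.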

MOLM14 F691L cells = test: MOLM14 F691L cell viability assay (Cell Titer Glo); type: cell-based; conditions: Homo sapiens, MOLM-14; cell viability, Cell Titer Glo, 48 hours; read-out: MOLM14 F691L IC50
How it was run: as §2

THP1 cells (FLT3 WT) = test: Combination drug screening with venetoclax in THP1 cells (Cell Titre Glo, 10 × 10); type: cell-based
Protocol: These assays were performed using the Cell Titre Glo assay, measured at 48 hours.
A smaller concentration indicates higher potency to synergize with Venetoclax.

FLT3 = molecular target: T2, FLT3 (Homo sapiens, UniProt P36888); test: RBC HotSpot Kinase Assay, FLT3; type: biochemical; parameters: purchased Reaction Biology (RBC HotSpot); conditions: isolated kinase enzyme, 33P-ATP, P81 filter-binding
T2 sequence (P36888 27-993): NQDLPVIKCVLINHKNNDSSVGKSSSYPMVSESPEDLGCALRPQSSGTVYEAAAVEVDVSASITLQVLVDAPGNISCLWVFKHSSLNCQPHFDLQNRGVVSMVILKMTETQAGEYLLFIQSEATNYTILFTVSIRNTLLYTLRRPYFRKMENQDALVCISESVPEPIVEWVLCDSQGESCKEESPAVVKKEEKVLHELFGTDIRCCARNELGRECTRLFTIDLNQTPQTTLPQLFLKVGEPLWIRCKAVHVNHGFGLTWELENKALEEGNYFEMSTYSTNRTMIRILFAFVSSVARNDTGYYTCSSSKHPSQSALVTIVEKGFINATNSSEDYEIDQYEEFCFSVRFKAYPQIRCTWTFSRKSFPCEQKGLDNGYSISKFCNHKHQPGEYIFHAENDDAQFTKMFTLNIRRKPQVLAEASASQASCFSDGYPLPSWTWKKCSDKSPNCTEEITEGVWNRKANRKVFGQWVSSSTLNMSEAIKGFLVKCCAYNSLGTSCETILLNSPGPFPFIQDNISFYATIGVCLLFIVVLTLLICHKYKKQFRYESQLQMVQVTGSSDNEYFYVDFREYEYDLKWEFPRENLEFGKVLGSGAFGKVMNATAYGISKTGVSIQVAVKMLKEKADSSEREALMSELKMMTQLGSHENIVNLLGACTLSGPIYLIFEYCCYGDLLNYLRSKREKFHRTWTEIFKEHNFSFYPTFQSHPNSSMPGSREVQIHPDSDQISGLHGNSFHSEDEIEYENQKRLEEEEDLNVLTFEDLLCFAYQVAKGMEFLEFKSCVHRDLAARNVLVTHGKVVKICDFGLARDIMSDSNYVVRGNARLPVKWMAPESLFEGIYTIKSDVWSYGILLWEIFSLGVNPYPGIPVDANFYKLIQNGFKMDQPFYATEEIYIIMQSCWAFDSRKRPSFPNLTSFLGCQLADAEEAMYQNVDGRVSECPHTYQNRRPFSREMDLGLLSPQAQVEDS
How it was run: as §1

T1 sequence (P51617 whole entry): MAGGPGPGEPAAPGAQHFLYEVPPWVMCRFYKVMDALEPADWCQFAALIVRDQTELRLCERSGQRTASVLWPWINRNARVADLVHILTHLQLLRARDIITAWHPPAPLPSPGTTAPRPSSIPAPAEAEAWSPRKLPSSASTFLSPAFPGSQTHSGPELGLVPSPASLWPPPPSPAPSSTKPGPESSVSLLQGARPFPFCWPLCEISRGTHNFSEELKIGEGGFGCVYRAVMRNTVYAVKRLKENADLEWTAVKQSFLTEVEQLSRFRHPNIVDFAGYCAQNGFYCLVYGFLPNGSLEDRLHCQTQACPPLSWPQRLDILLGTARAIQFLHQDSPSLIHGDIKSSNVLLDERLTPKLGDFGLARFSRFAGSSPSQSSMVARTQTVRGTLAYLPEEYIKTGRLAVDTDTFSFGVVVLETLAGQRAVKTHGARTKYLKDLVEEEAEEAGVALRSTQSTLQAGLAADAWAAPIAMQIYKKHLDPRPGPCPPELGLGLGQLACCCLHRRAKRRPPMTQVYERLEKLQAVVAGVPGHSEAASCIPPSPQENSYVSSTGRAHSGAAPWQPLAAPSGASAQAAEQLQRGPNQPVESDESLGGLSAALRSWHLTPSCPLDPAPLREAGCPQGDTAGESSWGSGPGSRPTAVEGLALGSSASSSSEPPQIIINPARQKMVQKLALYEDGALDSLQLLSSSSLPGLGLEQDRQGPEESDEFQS

Question: What does the source list for COc1cc2ncc(-c3ccnc(N[C@H]4CNCC[C@@H]4F)n3)n2nc1C1CCC1 [Compound 79a, 4-(6-cyclobutyl-7-methoxyimidazo[1,2-b]pyridazin-3-yl)-N-((3S,4S)-4-fluoropiperidin-3-yl)pyrimidin-2-amine]?
Answer: IC50 (IRAK1): 33 nM; IC50 (MOLM14 D835Y cells): 20 nM; IC50 (MOLM14 F691L cells): 101 nM; Excess HSA (sum excess HSA score, combination with venetoclax) (THP1 cells (FLT3 WT); 10 × 10 dataset, Cell Titre Glo at 48 hours, optimal of 4 dose combinations, negative = synergy): −994.9; Concentration needed to decrease the 312.5 nM Venetoclax response to <20% (THP1 cells (FLT3 WT); Cell Titer Glo at 48 hours): 5 µM; IC50 (FLT3): < 0.5 nM
